Test results: patent publication EP4159721A1, “CONDENSED 3,3-DIFLUORO-PIPERIDINE DERIVATIVES AS INHIBITORS OF CORONAVIRUSES 3-CHYMOTRYPSIN-LIKE PROTEASE” (Qubit Pharmaceuticals, priority 2021, dated 2023)
pIC50: −log10 of the molar value. Read-outs that look alike come from different tables or passages of the source.

What was measured:
SARS-CoV-2 3CLpro [1] = target: T1, SARS-CoV-2 3CLpro (Severe acute respiratory syndrome coronavirus 2, UniProt P0DTD1); experiment: Binding assessment by Nuclear Magnetic Resonance (WaterLOGSY and STD); set-up: key: +++: strong binder; ++: binder; +/-: not to very low binder; conditions: NMR (WaterLOGSY, STD); 10 µM of 3CLpro, ligand 100 µM to 2 mM, pH=7.3
SARS-CoV-2 3CLpro [2] = target: T1, SARS-CoV-2 3CLpro; experiment: Binding studies by Mass Spectrometry (ESI-MS, denaturing conditions); conditions: 10 µM 3CLpro, 1:1 or 10:1 compound:protein, 20 min at room temperature
SARS-CoV-2 3CLpro [3] = target: T1, SARS-CoV-2 3CLpro; experiment: FRET-based assay of 3CLpro inhibitory activity; type: biochemical

CSc1ccc2c(c1)NCC(F)(F)C2O (single isomer, unassigned) [Compound 1 or 2, 3,3-difluoro-7-(methylsulfanyl)-1,2,3,4-tetrahydroquinolin-4-ol]
Binding Activity (SARS-CoV-2 3CLpro [1]): ++

CSc1cc2c(cn1)C(O)C(F)(F)CN2 (single isomer, unassigned) [Compound 3 or 4, 3,3-difluoro-7-(methylsulfanyl)-1,2,3,4-tetrahydro-1,6-naphthyridin-4-ol]
Binding Activity (SARS-CoV-2 3CLpro [1]): +++

CSc1ccc2c(c1)NC(=O)C(F)(F)C2O (single isomer, unassigned) [Compound 5 or 6, 3,3-difluoro-4-hydroxy-7-(methylsulfanyl)-1,2,3,4-tetrahydroquinolin-2-one]
Binding Activity (SARS-CoV-2 3CLpro [1]): +++

CSc1cc2c(cn1)C(O)C(F)(F)C(=O)N2 (single isomer, unassigned) [Compound 7 or 8, 3,3-difluoro-4-hydroxy-7-(methylsulfanyl)-1,2,3,4-tetrahydro-1,6-naphthyridin-2-one]
Binding Activity (SARS-CoV-2 3CLpro [1]): ++

CSc1ccc2c(c1)NC(=O)C(F)(F)C2C (single isomer, unassigned) [Compound 9 or 10, 3,3-difluoro-4-methyl-7-(methylsulfanyl)-1,2,3,4-tetrahydroquinolin-2-one]
Binding Activity (SARS-CoV-2 3CLpro [1]): +++

CSc1ccc2c(c1)NCC(F)(F)C2C (single isomer, unassigned) [Compound 11 or 12, 3,3-difluoro-4-methyl-7-(methylsulfanyl)-1,2,3,4-tetrahydroquinoline]
Binding Activity (SARS-CoV-2 3CLpro [1]): ++

O=C1Nc2cc(SC3CC3)ccc2C(O)C1(F)F (single isomer, unassigned) [Compound 15 or 16]
Binding Activity (SARS-CoV-2 3CLpro [1]): ++

CSc1cc(F)c2c(c1)NC(=O)C(F)(F)C2O (single isomer, unassigned) [Compound 17 or 18]
Binding Activity (SARS-CoV-2 3CLpro [1]): ++

Cc1nn(C)c2c1C(O)C(F)(F)C(=O)N2 (single isomer, unassigned) [Compound 19 or 20, 5,5-difluoro-4-hydroxy-1,3-dimethyl-1H,4H,5H,6H,7H-pyrazolo[3,4-b]pyridin-6-one]
Binding Activity (SARS-CoV-2 3CLpro [1]): ++

CSc1cc2c(cn1)C(=O)C(F)(F)C(=O)N2 [Compound 13, 3,3-difluoro-7-(methylsulfanyl)-1,2,3,4-tetrahydro-1,6-naphthyridine-2,4-dione]
Covalent binding (SARS-CoV-2 3CLpro [2]): Covalent binding is confirmed | pIC50 (SARS-CoV-2 3CLpro [3]): 5.64

CSc1ccc2c(c1)NC(=O)C(F)(F)C2=O [Compound 14, 3,3-difluoro-7-(methylsulfanyl)-1,2,3,4-tetrahydroquinoline-2,4-dione]
Covalent binding (SARS-CoV-2 3CLpro [2]): Covalent binding is confirmed | pIC50 (SARS-CoV-2 3CLpro [3]; 0.02 µM 3CLpro, 5 µM peptide substrate, 20 minutes incubation at room temperature, triplicate, average and standard deviation, read-out: IC50): 6.08

CSc1ccc2c(c1)NC(=O)CC2C (centres unmarked) [reference compound]
Binding Activity (SARS-CoV-2 3CLpro [1]): +/-

CSc1ccc2c(c1)NC(=O)CC2=O [reference compound]
Binding Activity (SARS-CoV-2 3CLpro [1]): +/-

O=C1Nc2ccccc2C(O)C1(F)F (centres unmarked) [reference compound]
Binding Activity (SARS-CoV-2 3CLpro [1]): +/-

CSc1ccc2c(c1)NC(=O)C(F)(F)C2(C)O (centres unmarked) [reference compound]
Binding Activity (SARS-CoV-2 3CLpro [1]): +/-
